Entries after “also recorded” stand apart in the source; their conditions may differ. Where a name gives a salt, the structure may show the parent alone.
Columns and labels:
[1] = system: basal locomotor activity of mice; assay: Open field, basal locomotor activity of mice (Example 4A); assay type: in vivo, mouse
[2] = system: chronic mild stress (CMS) model of depression; assay: Chronic mild stress (CMS) model of depression, sucrose consumption (Example 3); assay type: in vivo, rat; details: for sucrose consumption in stressed animals compared to vehicle: 5 weeks; for time until increase in sucrose intake reached statistical significance vs Week 0: stressed animals
Description: Similar to the study described in Example 2, additional studies were undertaken to further evaluate the antidepressant effect of cariprazine hydrochloride, administered alone, or in combination with escitalopram oxalate, in a chronic mild stress model of depression
In the chronic mild stress (CMS) model, rats subjected to a variety of mild stressors for a prolonged period of time show a substantial decrease in their responsiveness to rewarding stimuli. This deficit is usually monitored by a decrease in the consumption of a 1% sucrose solution, but can also be seen in other tests, such as place preference conditioning or intracranial self-stimulation. The subsensitivity to reward appears to reflect anhedonia (inability to experience pleasure), which is a core symptom of major depressive disorders. Clinically approved antidepressants have shown activity in this animal model by reversing the effects of CMS on sucrose consumption. See, e.g., Sanchez C, Gruca P, Papp M, Behavioural Pharmacology 14, 465-470, 2003.
Male Wistar rats (Charles River, Germany) were brought into the laboratory two months before the start of the experiment. Except as described below, the animals were singly housed with food and water freely available, and were maintained on a 12-h light/dark and in a constant temperature (22±2° C.) and humidity (50±5%) conditions.
The animals were first trained to consume a 1% sucrose solution; training consisted of nine 1 h baseline tests in which sucrose was presented, in the home cage, following 14 h food and water deprivation. The sucrose intake was measured by weighing pre-weighed bottles containing the sucrose solution, at the end of the test. Subsequently, sucrose consumption was monitored, under similar conditions, at weekly intervals throughout the whole experiment.
On the basis of their sucrose intakes in the final baseline test, the animals were divided into two matched groups. One group of animals was subjected to the chronic mild stress procedure for a period of 7 consecutive weeks. Each week of stress regime consisted of: two periods of food or water deprivation, two periods of 45 degree cage tilt, two periods of intermittent illumination (lights on and off every 2 h), two periods of soiled cage (250 ml water in sawdust bedding), one period of paired housing, two periods of low intensity stroboscopic illumination (150 flashes/min), and three periods of no stress. All stressors were 10-14 h of duration and were applied individually and continuously, day and night. Control animals were housed in separate rooms and had no contact with the stressed animals. They were deprived of food and water for 14 h preceding each sucrose test, but otherwise food and water were freely available in the home cage.

[3] = system: d-amphetamine/chlordiazepoxide mixture (AMPH/CDP)-induced hyperactivity in mice; assay: d-Amphetamine/chlordiazepoxide (AMPH/CDP) hyperactivity test (Example 4B); assay type: in vivo, mouse; details: for Total Distance Traveled [mean ± SEM]: test condition AMPH/CDP
Procedure: Cariprazine hydrochloride and escitalopram oxalate were evaluated for anti-manic effects using the amphetamine/chlordiazepoxide (AMPH/CDP) hyperactivity test.
Male C57B1/6J mice (8 weeks old) from Jackson Laboratories (Bar Harbor, Me.) were used in this study. Upon receipt, mice were assigned unique identification numbers (tail marked) and were group housed (4 mice/cage) in OPTI mouse ventilated cages. All animals remained housed in groups of four during the remainder of the study. During the period of acclimation, mice were examined on a regular basis, handled, and weighed to assure adequate health and suitability. Mice were maintained on a 12/12 light/dark cycle. The room temperature was maintained between 20 and 23° C. with a relative humidity maintained between 30% and 70%. Chow and water were provided ad libitum for the duration of the study. In each test, animals were randomly assigned across treatment groups.
d-Amphetamine sulfate (Sigma, 4.0 mg/kg) and chlordiazepoxide (CDP; Sigma, 2.5 mg/kg) were dissolved in sterile water and were administered intraperitoneally at a dose volume of 10 ml/kg.
Distance traveled is measured by consecutive beam breaks.
Data was analyzed by analysis of variance (ANOVA) followed by Fisher PLSD post-hoc analysis when appropriate. An effect was considered significant if p<0.05. Outliers that fell above and below two standard deviations from the mean were removed from the final analysis.

[4] = system: chronic mild stress (CMS) model of depression; assay: Chronic mild stress (CMS) model of depression, sucrose consumption (Example 2); assay type: in vivo, rat
Description: This study evaluated the antidepressant effect of cariprazine hydrochloride in the chronic mild stress (CMS) model of depression. A comparison to the efficacy of the tricyciclic antidepressant compound imipramine was also made.
Male Wistar rats were adapted to laboratory and housing conditions for 3 weeks, followed by adoption to consumption of 1% sucrose solution for an additional 5 weeks before being separated into control and to-be-stressed groups.
Chronic stress was applied to the allocated group for seven weeks. The following stressors were used: food and/or water deprivation, cage tilting (45 degrees backwards), intermittent illumination, paired housing, soiled cage (250 mL of tap water in sawdust bedding), stroboscopic illumination (150 flashed per minute), no stress. All stressors were 10-14 hours in duration and were applied individually and continuously, once or twice weekly, during the day and at night.
Consumption of sucrose solution was measured in 1-hour tests conducted on all animals (i.e., controls and stressed) once weekly throughout the entire experiment. The tests were preceded by 14 hours of food and water deprivation. On the basis of their sucrose intakes following the initial 2 weeks of stress, both stressed and control animals received once-daily chronic (5 weeks) IP injections of vehicle (1% methyl cellulose, 1 mL/kg), cariprazine hydrochloride (0.0625, 0.25 or 1.0 mg/kg), or imipramine (10 mg/kg) as reference treatment. […] These animals were considered weak responders/non-responders and were eliminated from the analysis.

[5] = escitalopram oxalate 2 mg/kg IP once daily
[6] = cariprazine hydrochloride 1 mg/kg IP once daily
[7] = cariprazine hydrochloride 0.065 and 0.25 mg/kg IP once daily, 5 weeks

SMILES: CN(C)CCC[C@@]1(c2ccc(F)cc2)OCc2cc(C#N)ccc21 [Escitalopram oxalate, 1-[3-(dimethyl-amino)propyl]-1-(p-fluorophenyl)-5-phthalancarbonitrile]
- effect on basal activity compared to water-treated mice ([1]; escitalopram oxalate 0.5, 2.0 and 5.0 mg/kg oral): Neither valproate nor escitalopram oxalate (0.5, 2.0, and 5.0 mg/kg) had a significant effect
- Total Distance Traveled [mean ± SEM] ([1]; test condition water, 2.0 mg/kg oral, 60 min pretreatment): 5939 ± 369 cm/60 min
- sucrose consumption in stressed animals compared to vehicle [2, 5]: gradually increased; also recorded: fully reversed
- time until increase in sucrose intake reached statistical significance vs Week 0 [2, 5]: after three weeks of treatment
- effect on mixture-induced locomotor activity ([3]; escitalopram oxalate alone, either dose tested (0.10 and 0.50 mg/kg oral)): no significant effect
- Total Distance Traveled [mean ± SEM] ([3]; escitalopram oxalate 0.10 mg/kg oral): 39700 ± 3477 cm/60 min
- Total Distance Traveled [mean ± SEM] ([3]; escitalopram oxalate 0.50 mg/kg oral): 40881 ± 3123 cm/60 min

SMILES: CN(C)C(=O)N[C@H]1CC[C@H](CCN2CCN(c3cccc(Cl)c3Cl)CC2)CC1 [Cariprazine hydrochloride, trans-4-{2-[4-(2,3-dichlorophenyl)-piperazin-1-yl]-ethyl}-N,N-dimethylcarbamoyl-cyclohexylamine hydrochloride]
- sucrose consumption in stressed animals compared to vehicle ([2]; cariprazine hydrochloride 0.01 mg/kg alone, IP once daily): significantly decreased
- sucrose consumption in stressed animals compared to vehicle ([2]; cariprazine hydrochloride 0.03 mg/kg alone, IP once daily): gradually increased
- time until increase in sucrose intake reached statistical significance vs Week 0 ([2]; cariprazine hydrochloride 0.03 mg/kg alone, IP once daily, hydrochloride): after four weeks of treatment; also recorded: three weeks
- sucrose consumption in stressed animals compared to vehicle ([2]; cariprazine hydrochloride 0.065 mg/kg IP once daily): gradually increased
- time until increase in sucrose intake reached statistical significance vs Week 0 ([2]; cariprazine hydrochloride 0.065 mg/kg IP once daily, hydrochloride): after the first week of treatment; also recorded: following the first week of administration
- magnitude of action relative to escitalopram oxalate ([2]; cariprazine hydrochloride alone, full recovery at the end of treatment period): comparable to that of escitalopram oxalate
- onset of action: increases in sucrose drinking evident at ([4]; cariprazine hydrochloride 0.065 mg/kg IP once daily, stressed animals): 1 Week
- sedation ([4]; cariprazine hydrochloride 1 mg/kg IP): strongly sedative dose
- sucrose consumption in control animals [4, 6]: significantly decreased
- sucrose intake in stressed animals [4, 6]: did not change
- activity in the CMS model ([4]; cariprazine hydrochloride 1 mg/kg IP once daily (highest dose)): inactive
- sucrose drinking in controls (non-stressed) [4, 7]: without any significant effect
- sucrose drinking in stressed animals [4, 7]: dose-dependently increased sucrose drinking
- magnitude of effect on sucrose drinking relative to imipramine ([4]; most active dose 0.065 mg/kg IP vs imipramine 10 mg/kg IP): greater than that of imipramine
- effect on enhanced locomotor activity produced by the CDP+amphetamine mixture ([3]; cariprazine hydrochloride 0.10 mg/kg oral): significantly attenuated
- Total Distance Traveled [mean ± SEM] ([3]; cariprazine HCl 0.03 mg/kg oral): 32628 ± 2510 cm/60 min
- Total Distance Traveled [mean ± SEM] ([3]; cariprazine HCl 0.10 mg/kg oral): 22594 ± 2838 cm/60 min

— US20110015208A1, “PHARMACEUTICAL COMPOSITIONS CONTAINING DOPAMINE RECEPTOR LIGANDS AND METHODS OF TREATMENT USING DOPAMINE RECEPTOR LIGANDS” (priority 2007, published 2011)
